How the values were obtained:
Test in all cases: relative viability (nuclei count vs DMSO), 5 days (fraction); higher = more cells survive
[1] = compound: C1=CC=C(C(=C1)C2=CC=C(C=C2)C3=CSC4=C3C(=C(C(=O)N4)C#N)O)O + Cc1nc(Nc2ncc(C(=O)Nc3c(C)cccc3Cl)s2)cc(N2CCN(CCO)CC2)n1 [Dasatinib] (partner 0.075 µM)
Summary of the method: (§1)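 Cells from lung cancer lines were seeded into 1536-well plates and, one day later, dosed by pin tool. Treatments were either a single drug or a fixed dose of an anchor drug with five library-drug doses (not always all listed) in √10 steps. After 5 days, nuclei were stained in a one-step fixation (final 0.05% Triton X-100, 1% formaldehyde, 1 ug/ml Hoechst) and counted on 4× images, and relative viability is the treated-to-vehicle nuclei ratio, as the median of duplicate plates.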

TGX 221 + Dasatinib = compound: CC1=CN2C(=O)C=C(N=C2C(=C1)C(C)NC3=CC=CC=C3)N4CCOCC4 [TGX 221] + Cc1nc(Nc2ncc(C(=O)Nc3c(C)cccc3Cl)s2)cc(N2CCN(CCO)CC2)n1 [Dasatinib] (partner 0.075 µM)
Summary of the method: as §1

Ricolinostat + Lapatinib = compound: O=C(CCCCCCNC(=O)c1cnc(N(c2ccccc2)c2ccccc2)nc1)NO [Ricolinostat] + CS(=O)(=O)CCNCc1ccc(-c2ccc3ncnc(Nc4ccc(OCc5cccc(F)c5)c(Cl)c4)c3c2)o1 [Lapatinib] (partner 2 µM)
Summary of the method: as §1

[2] = compound: O=C(CCCCCCNC(=O)c1cnc(N(c2ccccc2)c2ccccc2)nc1)NO [Ricolinostat] + N=C(N)NC(=N)NCCc1ccccc1 [Phenformin] (partner 250 µM)
Summary of the method: as §1

COR-L23
relative viability ([1]; first compound 0.08 µM): 0.492 | relative viability ([1]; first compound 0.253 µM): 0.48 | relative viability ([1]; first compound 0.8 µM): 0.61 | relative viability ([1]; first compound 2.53 µM): 0.548 | relative viability ([1]; first compound 8 µM): 0.272 | relative viability (TGX 221 + Dasatinib; first compound 0.08 µM): 0.483 | relative viability (TGX 221 + Dasatinib; first compound 0.253 µM): 0.457 | relative viability (TGX 221 + Dasatinib; first compound 0.8 µM): 0.538 | relative viability (TGX 221 + Dasatinib; first compound 2.53 µM): 0.488 | relative viability (TGX 221 + Dasatinib; first compound 8 µM): 0.431 | relative viability (Ricolinostat + Lapatinib; first compound 0.08 µM): 1.05 | relative viability (Ricolinostat + Lapatinib; first compound 0.253 µM): 0.835 | relative viability (Ricolinostat + Lapatinib; first compound 0.8 µM): 0.8 | relative viability (Ricolinostat + Lapatinib; first compound 2.53 µM): 0.588 | relative viability ([2]; first compound 0.08 µM): 0.363 | relative viability ([2]; first compound 0.253 µM): 0.379 | relative viability ([2]; first compound 0.8 µM): 0.402 | relative viability ([2]; first compound 2.53 µM): 0.227

BEN
relative viability ([1]; first compound 0.08 µM): 0.287 | relative viability ([1]; first compound 0.253 µM): 0.284 | relative viability ([1]; first compound 0.8 µM): 0.312 | relative viability ([1]; first compound 2.53 µM): 0.318 | relative viability ([1]; first compound 8 µM): 0.318 | relative viability (TGX 221 + Dasatinib; first compound 0.08 µM): 0.385 | relative viability (TGX 221 + Dasatinib; first compound 0.253 µM): 0.266 | relative viability (TGX 221 + Dasatinib; first compound 0.8 µM): 0.317 | relative viability (TGX 221 + Dasatinib; first compound 2.53 µM): 0.328 | relative viability (TGX 221 + Dasatinib; first compound 8 µM): 0.293 | relative viability (Ricolinostat + Lapatinib; first compound 0.08 µM): 0.613 | relative viability (Ricolinostat + Lapatinib; first compound 0.253 µM): 0.643 | relative viability (Ricolinostat + Lapatinib; first compound 0.8 µM): 0.588 | relative viability (Ricolinostat + Lapatinib; first compound 2.53 µM): 0.423 | relative viability ([2]; first compound 0.08 µM): 0.321 | relative viability ([2]; first compound 0.253 µM): 0.283 | relative viability ([2]; first compound 0.8 µM): 0.228 | relative viability ([2]; first compound 2.53 µM): 0.225

LC-2-ad
relative viability ([1]; first compound 0.08 µM): 0.367 | relative viability ([1]; first compound 0.253 µM): 0.545 | relative viability ([1]; first compound 0.8 µM): 0.426 | relative viability ([1]; first compound 2.53 µM): 0.694 | relative viability ([1]; first compound 8 µM): 0.475 | relative viability (TGX 221 + Dasatinib; first compound 0.08 µM): 0.459 | relative viability (TGX 221 + Dasatinib; first compound 0.253 µM): 0.51 | relative viability (TGX 221 + Dasatinib; first compound 0.8 µM): 0.66 | relative viability (TGX 221 + Dasatinib; first compound 2.53 µM): 0.55 | relative viability (TGX 221 + Dasatinib; first compound 8 µM): 0.505 | relative viability (Ricolinostat + Lapatinib; first compound 0.08 µM): 0.883 | relative viability (Ricolinostat + Lapatinib; first compound 0.253 µM): 0.943 | relative viability (Ricolinostat + Lapatinib; first compound 0.8 µM): 0.98 | relative viability (Ricolinostat + Lapatinib; first compound 2.53 µM): 0.678 | relative viability ([2]; first compound 0.08 µM): 0.47 | relative viability ([2]; first compound 0.253 µM): 0.621 | relative viability ([2]; first compound 0.8 µM): 0.5 | relative viability ([2]; first compound 2.53 µM): 0.44

NCI-H650
relative viability ([1]; first compound 0.08 µM): 0.45 | relative viability ([1]; first compound 0.253 µM): 0.449 | relative viability ([1]; first compound 0.8 µM): 0.428 | relative viability ([1]; first compound 2.53 µM): 0.474 | relative viability ([1]; first compound 8 µM): 0.428 | relative viability (TGX 221 + Dasatinib; first compound 0.08 µM): 0.44 | relative viability (TGX 221 + Dasatinib; first compound 0.253 µM): 0.402 | relative viability (TGX 221 + Dasatinib; first compound 0.8 µM): 0.424 | relative viability (TGX 221 + Dasatinib; first compound 2.53 µM): 0.393 | relative viability (TGX 221 + Dasatinib; first compound 8 µM): 0.429 | relative viability (Ricolinostat + Lapatinib; first compound 0.253 µM): 0.888 | relative viability (Ricolinostat + Lapatinib; first compound 0.8 µM): 0.734 | relative viability (Ricolinostat + Lapatinib; first compound 2.53 µM): 0.504 | relative viability ([2]; first compound 0.08 µM): 0.373 | relative viability ([2]; first compound 0.253 µM): 0.454 | relative viability ([2]; first compound 0.8 µM): 0.397 | relative viability ([2]; first compound 2.53 µM): 0.281

NCI-H1563
relative viability ([1]; first compound 0.08 µM): 0.469 | relative viability ([1]; first compound 0.253 µM): 0.553 | relative viability ([1]; first compound 0.8 µM): 0.529 | relative viability ([1]; first compound 2.53 µM): 0.439 | relative viability ([1]; first compound 8 µM): 0.477 | relative viability (TGX 221 + Dasatinib; first compound 0.08 µM): 0.427 | relative viability (TGX 221 + Dasatinib; first compound 0.253 µM): 0.457 | relative viability (TGX 221 + Dasatinib; first compound 0.8 µM): 0.434 | relative viability (TGX 221 + Dasatinib; first compound 2.53 µM): 0.46 | relative viability (TGX 221 + Dasatinib; first compound 8 µM): 0.428 | relative viability (Ricolinostat + Lapatinib; first compound 0.08 µM): 0.898 | relative viability (Ricolinostat + Lapatinib; first compound 0.253 µM): 0.927 | relative viability (Ricolinostat + Lapatinib; first compound 0.8 µM): 0.97 | relative viability (Ricolinostat + Lapatinib; first compound 2.53 µM): 0.834 | relative viability ([2]; first compound 0.08 µM): 0.596 | relative viability ([2]; first compound 0.253 µM): 0.647 | relative viability ([2]; first compound 0.8 µM): 0.685 | relative viability ([2]; first compound 2.53 µM): 0.671

NCI-H1793
relative viability ([1]; first compound 0.08 µM): 0.356 | relative viability ([1]; first compound 0.253 µM): 0.354 | relative viability ([1]; first compound 0.8 µM): 0.419 | relative viability ([1]; first compound 2.53 µM): 0.4 | relative viability ([1]; first compound 8 µM): 0.326 | relative viability (TGX 221 + Dasatinib; first compound 0.08 µM): 0.344 | relative viability (TGX 221 + Dasatinib; first compound 0.253 µM): 0.289 | relative viability (TGX 221 + Dasatinib; first compound 0.8 µM): 0.363 | relative viability (TGX 221 + Dasatinib; first compound 2.53 µM): 0.48 | relative viability (TGX 221 + Dasatinib; first compound 8 µM): 0.381 | relative viability (Ricolinostat + Lapatinib; first compound 0.253 µM): 0.739 | relative viability (Ricolinostat + Lapatinib; first compound 0.8 µM): 0.61 | relative viability (Ricolinostat + Lapatinib; first compound 2.53 µM): 0.895 | relative viability ([2]; first compound 0.253 µM): 0.438 | relative viability ([2]; first compound 0.8 µM): 0.355 | relative viability ([2]; first compound 2.53 µM): 0.369

HCC-78
relative viability ([1]; first compound 0.08 µM): 0.354 | relative viability ([1]; first compound 0.253 µM): 0.388 | relative viability ([1]; first compound 0.8 µM): 0.327 | relative viability ([1]; first compound 2.53 µM): 0.363 | relative viability ([1]; first compound 8 µM): 0.239 | relative viability (TGX 221 + Dasatinib; first compound 0.08 µM): 0.405 | relative viability (TGX 221 + Dasatinib; first compound 0.253 µM): 0.324 | relative viability (TGX 221 + Dasatinib; first compound 0.8 µM): 0.231 | relative viability (TGX 221 + Dasatinib; first compound 2.53 µM): 0.235 | relative viability (TGX 221 + Dasatinib; first compound 8 µM): 0.246 | relative viability (Ricolinostat + Lapatinib; first compound 0.253 µM): 0.803 | relative viability (Ricolinostat + Lapatinib; first compound 0.8 µM): 0.699 | relative viability (Ricolinostat + Lapatinib; first compound 2.53 µM): 0.385 | relative viability ([2]; first compound 0.253 µM): 0.761 | relative viability ([2]; first compound 0.8 µM): 0.596 | relative viability ([2]; first compound 2.53 µM): 0.428

LCLC-97TM1
relative viability ([1]; first compound 0.08 µM): 0.767 | relative viability ([1]; first compound 0.253 µM): 0.979 | relative viability ([1]; first compound 0.8 µM): 0.98 | relative viability ([1]; first compound 2.53 µM): 0.936 | relative viability ([1]; first compound 8 µM): 0.806 | relative viability (TGX 221 + Dasatinib; first compound 0.08 µM): 0.902 | relative viability (TGX 221 + Dasatinib; first compound 0.253 µM): 0.73 | relative viability (TGX 221 + Dasatinib; first compound 0.8 µM): 0.779 | relative viability (TGX 221 + Dasatinib; first compound 2.53 µM): 0.742 | relative viability (TGX 221 + Dasatinib; first compound 8 µM): 0.791 | relative viability (Ricolinostat + Lapatinib; first compound 0.08 µM): 0.658 | relative viability (Ricolinostat + Lapatinib; first compound 0.253 µM): 1.09 | relative viability (Ricolinostat + Lapatinib; first compound 0.8 µM): 0.87 | relative viability (Ricolinostat + Lapatinib; first compound 2.53 µM): 1.15 | relative viability ([2]; first compound 0.08 µM): 0.314 | relative viability ([2]; first compound 0.253 µM): 0.417 | relative viability ([2]; first compound 0.8 µM): 0.45 | relative viability ([2]; first compound 2.53 µM): 0.204

From the supplement of paper PMC10307832
